Here are results for nine compounds from patent publication US12600720B2, “Modulators of the integrated stress response pathway” (Evotec International GmbH, priority 2020, dated 2026).

Structures are written as SMILES.

In general, IC50 refers to the concentration at which inhibition is half-maximal.

The subject of the test is ATF4. The experiment in a line: HEK-ATF4 High Content Imaging assay (prevention of Tunicamycin induced ISR, ATF4 nucleus/cytoplasm signal ratio). It is filed as cell-based. To be noted: Homo sapiens, wild-type HEK293 cells, 6 h incubation, ATF4 immunofluorescence. As for the experimental part: HEK-ATF4 High Content Imaging assay
Example compounds were tested in the HEK-ATF4 High Content Imaging assay to assess their pharmacological potency to prevent Tunicamycin induced ISR. Wild-type HEK293 cells were plated in 384-well imaging assay plates at a density of 12,000 cells per well in growth medium (containing DMEM/F12, 10% FBS, 2 mM L-Glutamine, 100 U/mL Penicillin—100 μg/mL Streptomycin) and incubated at 37° C., 5% CO2. 24 h later, the medium was changed to 50 μL assay medium per well (DMEM/F12, 0.3% FBS, 2 mM L-Glutamine, 100 U/mL Penicillin—100 μg/mL Streptomycin). Example compounds were serially diluted in DMSO, spotted into intermediate plates and prediluted with assay medium containing 3.3 μM Tunicamycin to give an 11-fold excess of final assay concentration. In addition to the example compound testing area, the plates also contained multiples of control wells for assay normalization purposes, wells containing Tunicamycin but no example compounds (High control), as well as wells containing neither example compound nor Tunicamycin (Low control). The assay was started by transferring 5 μL from the intermediate plate into the assay plates, followed by incubation for 6 h at 37° C., 5% CO2. Subsequently, cells were fixed (4% PFA in PBS, 20 min at r.t.) and submitted to indirect ATF4 immunofluorescence staining (primary antibody rabbit anti ATF4, clone D4B8, Cell Signaling Technologies; secondary antibody Alexa Fluor 488 goat anti-rabbit IgG (H+L), Thermofisher Scientific). Nuclei were stained using Hoechst dye (Thermofisher Scientific), and plates were imaged on an Opera Phenix High Content imaging platform equipped with 405 nm and 488 nm excitation. Finally, images were analyzed using script based algorithms. The main readout HEK-ATF4 monitored the ATF4 signal ratio between nucleus and cytoplasm. Tunicamycin induced an increase in the overall ATF4 ratio signal, which was prevented by ISR modulating example compounds. In addition, HEK-CellCount readout was derived from counting the number of stained nuclei corresponding to healthy cells. This readout served as an internal toxicity control.
Regarding `O=C(COc1ccc(Cl)c(F)c1)N[C@H]1CC[C@H](c2nc3ccc(Cl)cc3o2)NC1` [Example 2, N-[(3S,6R)-6-(6-chloro-1,3-benzoxazol-2-yl)piperidin-3-yl]-2-(4-chloro-3-fluorophenoxy)acetamide], the IC50 fell in the range of 500 to 2000 nM.
As for `O=C(COc1ccc(Cl)c(F)c1)N[C@H]1CC[C@H](c2nc3cc(Cl)ccc3o2)NC1` [Example 4, N-[(3S,6R)-6-(5-chloro-1,3-benzoxazol-2-yl)piperidin-3-yl]-2-(4-chloro-3-fluorophenoxy)acetamide], the IC50 lay within 2000 to 15000 nM.
On to `O=C(COc1ccc(Cl)c(F)c1)N[C@H]1CC[C@H](c2cn3cc(C(F)(F)F)ccc3n2)NC1` [Example 6, 2-(4-chloro-3-fluoro-phenoxy)-N-[(3S,6R)-6-[6-(trifluoromethyl)imidazo[1,2-a]pyridin-2-yl]-3-piperidyl]acetamide], for which the IC50 lay in the range of 2000 to 15000 nM.
With `O=C(COc1ccc(Cl)c(F)c1)N[C@H]1CC[C@H](c2cn3ccc(C(F)(F)F)cc3n2)NC1` [Example 8, 2-(4-chloro-3-fluoro-phenoxy)-N-[(3S,6R)-6-[7-(trifluoromethyl)imidazo[1,2-a]pyridin-2-yl]-3-piperidyl]acetamide], the IC50 fell in the range of 2000 to 15000 nM.
For `O=C(COc1ccc(Cl)c(F)c1)N[C@H]1CC[C@H](c2nc3cccc(Cl)c3o2)NC1` [Example 10, N-[(3S,6R)-6-(7-chloro-1,3-benzoxazol-2-yl)piperidin-3-yl]-2-(4-chloro-3-fluorophenoxy)acetamide], the IC50 lay within 500 to 2000 nM.
In the case of `O=C(COc1ccc(Cl)c(F)c1)N[C@H]1CC[C@H](c2nc3ccc(OC(F)(F)F)cc3o2)NC1` [Example 12, 2-(4-chloro-3-fluorophenoxy)-N-[(3S,6R)-6-[6-(trifluoromethoxy)-1,3-benzoxazol-2-yl]piperidin-3-yl]acetamide], the IC50 was 1 to 500 nM.
For the compound `O=C(COc1ccc(Cl)c(F)c1)N[C@H]1CC[C@H](c2nc3ccc(OC(F)F)cc3o2)NC1` [Example 14, 2-(4-chloro-3-fluorophenoxy)-N-[(3S,6R)-6-[6-(difluoromethoxy)-1,3-benzoxazol-2-yl]piperidin-3-yl]acetamide], the IC50 is 500 to 2000 nM.
As for `O=C(COc1ccc(Cl)c(F)c1)N[C@H]1CC[C@H](c2nc3ccc(C(F)(F)F)cc3o2)NC1` [Example 16, 2-(4-chloro-3-fluorophenoxy)-N-[(3S,6R)-6-[6-(trifluoromethyl)-1,3-benzoxazol-2-yl]piperidin-3-yl]acetamide], the IC50 was in the range of 1 to 500 nM.
The figure for `O=C(COc1ccc(Cl)c(F)c1)N[C@H]1CC[C@H](c2nc3c(Cl)cccc3o2)NC1` [Example 18, N-[(3S,6R)-6-(4-chloro-1,3-benzoxazol-2-yl)piperidin-3-yl]-2-(4-chloro-3-fluorophenoxy)acetamide] is 2000 to 15000 nM.
